In ChEMBL document CHEMBL4665674, “Medicinal Chemistry Strategies for the Development of Kinase Inhibitors Targeting Point Mutations” (J Med Chem, 2020) one finds DC50, IC50 and GI50 data, which are given here for nine compounds.

Experiment [1] has as its target T1, Protein cereblon/Tyrosine-protein kinase BTK (Homo sapiens, UniProt Q06187+Q96SW2, C481S). Put plainly: Induction of CRBN-mediated degradation of human BTK C481S mutant expressed in human HeLa cells incubated for 4 days by Western blot analysis. It is filed as cell-based.
The nature of experiment [2]: Induction of CRBN-mediated degradation of human BTK C481A mutant expressed in human HeLa cells incubated for 4 days by Western blot analysis. It is filed as cell-based. Particulars: 96 h.
Experiment [3] is described as follows: Induction of CRBN-mediated degradation of human BTK C481G mutant expressed in human HeLa cells incubated for 4 days by Western blot analysis. In kind it is cell-based. The following applies: 96 h.
Experiment [4] can be described thus: Induction of CRBN-mediated degradation of human BTK C481T mutant expressed in human HeLa cells incubated for 4 days by Western blot analysis. It is filed as cell-based. Particulars: 96 h.
The nature of experiment [5]: Induction of CRBN-mediated degradation of human BTK C481W mutant expressed in human HeLa cells incubated for 4 days by Western blot analysis. It is filed as cell-based. The following applies: 96 h.
The target in experiment [6] is T2, Protein cereblon/Tyrosine-protein kinase BTK (Homo sapiens, UniProt Q06187+Q96SW2). Nature of the experiment: Induction of CRBN-mediated degradation of wild type human BTK expressed in human HeLa cells incubated for 4 days by Western blot analysis. In kind it is cell-based.
T2 sequence (Q06187 whole entry): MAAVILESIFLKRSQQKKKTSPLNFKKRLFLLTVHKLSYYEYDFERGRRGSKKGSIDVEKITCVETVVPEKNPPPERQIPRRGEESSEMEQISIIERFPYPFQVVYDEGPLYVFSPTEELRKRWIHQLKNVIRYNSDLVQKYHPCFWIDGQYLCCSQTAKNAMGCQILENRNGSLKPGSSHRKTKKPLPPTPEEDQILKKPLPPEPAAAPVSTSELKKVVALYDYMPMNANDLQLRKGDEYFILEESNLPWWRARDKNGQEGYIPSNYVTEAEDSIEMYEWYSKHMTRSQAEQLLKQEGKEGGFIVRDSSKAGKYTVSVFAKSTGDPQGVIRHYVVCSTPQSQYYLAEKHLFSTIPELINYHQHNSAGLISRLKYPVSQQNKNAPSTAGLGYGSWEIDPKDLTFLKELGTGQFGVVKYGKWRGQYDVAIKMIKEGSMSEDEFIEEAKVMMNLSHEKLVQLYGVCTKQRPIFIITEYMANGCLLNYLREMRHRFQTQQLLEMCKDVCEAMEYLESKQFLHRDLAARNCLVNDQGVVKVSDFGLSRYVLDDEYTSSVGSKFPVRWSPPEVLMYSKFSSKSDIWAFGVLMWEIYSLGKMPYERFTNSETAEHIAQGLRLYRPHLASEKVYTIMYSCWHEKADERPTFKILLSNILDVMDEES
T2 sequence (Q96SW2 whole entry): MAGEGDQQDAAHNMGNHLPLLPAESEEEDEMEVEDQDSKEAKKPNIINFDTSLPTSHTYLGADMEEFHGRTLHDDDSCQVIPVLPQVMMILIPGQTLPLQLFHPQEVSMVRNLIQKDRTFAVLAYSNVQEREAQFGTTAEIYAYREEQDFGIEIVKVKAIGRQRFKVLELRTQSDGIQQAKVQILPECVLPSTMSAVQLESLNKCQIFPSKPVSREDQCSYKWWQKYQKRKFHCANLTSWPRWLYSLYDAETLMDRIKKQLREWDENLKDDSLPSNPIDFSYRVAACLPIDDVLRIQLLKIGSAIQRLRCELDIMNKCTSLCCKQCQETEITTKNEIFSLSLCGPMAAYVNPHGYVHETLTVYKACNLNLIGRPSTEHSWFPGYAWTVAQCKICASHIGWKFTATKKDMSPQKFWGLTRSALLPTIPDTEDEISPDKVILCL
A short description of the next experiment: cells. The following applies: Homo sapiens, HN11, 72 h.
Experiment [7] is described as follows: Inhibition of LMNA-TRKA G595R (unknown origin) expressed in mouse Ba/F3 cells assessed as antiproliferative activity incubated for 72 hrs by CellTiter-Glo luciferase-based ATP detection assay. It is filed as cell-based. The following applies: BaF3, 72 h.
The nature of experiment [8]: Inhibition of CD74-ROS1 G2032R mutant (unknown origin) expressed in mouse Ba/F3 cells assessed as antiproliferative activity incubated for 72 hrs by CellTiter-Glo luciferase-based ATP detection assay. The following applies: BaF3, 72 h. It is filed as cell-based.
Experiment [9] can be described thus: Antiproliferative activity against human NCI-H3122-CR1 cells harboring ALK L1196M mutant after 72 hrs by CellTiter-Glo assay. It is filed as functional.
Experiment [10] can be described thus: Antiproliferative activity against human MGH021-4 cells harboring ALK G1269A mutant after 72 hrs by CellTiter-Glo assay. It is filed as functional. Particulars: MGH0214.
The target of experiment [11] is T1, Protein cereblon/Tyrosine-protein kinase BTK. Put plainly: Induction of CRBN-mediated degradation of BTK C481S mutant (unknown origin) expressed in B cells derived from X-linked agammaglobulinemia patient by immunoblot analysis. It is filed as cell-based. Particulars: b-cell.
The target of experiment [12] is T2, Protein cereblon/Tyrosine-protein kinase BTK. Put plainly: Induction of CRBN-mediated degradation of wild type BTK (unknown origin) expressed in B cells derived from X-linked agammaglobulinemia patient by immunoblot analysis. In kind it is cell-based. Particulars: b-cell.
Experiment [13] addresses T3, Tyrosine-protein kinase BTK (Homo sapiens, UniProt Q06187). Nature of the experiment: Inhibition of BTK (unknown origin).
Experiment [14] concerns the target T3, Tyrosine-protein kinase BTK. Nature of the experiment: Inhibition of wild type BTK (unknown origin).
A further experiment has as its system NCI-H1975. Put plainly: cells. Particulars: Homo sapiens.
The test system of another experiment is LoVo. Put plainly: cells. In kind it is functional, cell-based. The following applies: Homo sapiens.

T3 sequence (Q06187 whole entry): as the sequence (Q06187 whole entry) above
T1 sequence (Q06187 2-659 C481S limits assumed, stated change not applied): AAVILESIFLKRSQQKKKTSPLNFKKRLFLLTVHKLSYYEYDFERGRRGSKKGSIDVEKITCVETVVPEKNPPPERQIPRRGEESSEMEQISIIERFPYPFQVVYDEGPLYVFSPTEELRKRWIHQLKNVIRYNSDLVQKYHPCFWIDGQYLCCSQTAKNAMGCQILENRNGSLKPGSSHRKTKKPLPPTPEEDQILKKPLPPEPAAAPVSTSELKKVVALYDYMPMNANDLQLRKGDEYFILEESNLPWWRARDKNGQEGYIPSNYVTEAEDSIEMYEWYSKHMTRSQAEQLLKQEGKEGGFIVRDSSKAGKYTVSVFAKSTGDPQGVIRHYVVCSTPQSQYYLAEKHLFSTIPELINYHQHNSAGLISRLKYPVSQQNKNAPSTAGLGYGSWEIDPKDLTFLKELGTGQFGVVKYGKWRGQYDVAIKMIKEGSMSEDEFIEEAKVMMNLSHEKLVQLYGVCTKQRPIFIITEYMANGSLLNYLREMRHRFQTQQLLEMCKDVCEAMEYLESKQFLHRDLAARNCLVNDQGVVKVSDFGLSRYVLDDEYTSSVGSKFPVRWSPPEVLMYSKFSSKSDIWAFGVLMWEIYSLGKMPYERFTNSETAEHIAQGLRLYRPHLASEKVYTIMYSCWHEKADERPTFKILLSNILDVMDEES
T1 sequence (Q96SW2 whole entry, stated change not applied): as the sequence (Q96SW2 whole entry) above

As for `Nc1ncnc2c1c(-c1ccc(Oc3ccccc3)cc1)nn2[C@@H]1CCCN(C(=O)c2cn(CCOCCOCCOCCCc3ccc4c(c3)CN(C3CCC(=O)NC3=O)C4=O)nn2)C1` (some centres undefined), the 50% degradation concentration (DC50) in experiment [1], in [2], in experiment [3], in experiment [4], in experiment [5] and in [6] was 18 nM throughout.
As to `C=CC(=O)Nc1cccc(Oc2nc(Nc3ccc(N4CCN(C)CC4)cc3OC)ncc2Cl)c1`, the concentration for half-maximal inhibition (IC50) in “cells” was found to be 2130 nM.
For the compound `C[C@H]1CNC(=O)c2cnn3ccc(nc23)N[C@H](C)c2cc(F)ccc2O1` [REPOTRECTINIB], the IC50 in [7] was determined as 0.4 nM; in [8], 3.3 nM.
In the case of `Cc1cc(Nc2ncc(Cl)c(Nc3ccccc3S(=O)(=O)C(C)C)n2)c(OC(C)C)cc1C1CCNCC1` [CERITINIB], the results for the 50% growth inhibitory concentration (GI50) in [9] and in experiment [10] were 230 nM and 80 nM, respectively.
`Nc1ncnc2c1c(-c1ccc(Oc3ccccc3)cc1)nn2[C@@H]1CCCN(CCOCCOCC(=O)Nc2ccc3c(c2)CN(C2CCC(=O)NC2=O)C3=O)C1` (some centres undefined): the values for the 50% degradation concentration (DC50) in experiment [11] and in experiment [12] were 14.9 nM and 14.6 nM, respectively.
Compound `Cc1c(NC(=O)c2ccc(C(C)(C)C)cc2)cccc1-c1cn(C)c(=O)c(Nc2ccc(C(=O)N3CCN(CCCCCCNC(=O)CNc4cccc5c4C(=O)N(C4CCC(=O)NC4=O)C5=O)CC3)cc2)n1` (centres undefined) displayed an IC50 in [13] of 5.1 nM.
Take `NC(=O)[C@H]1CCN(c2ncnc(N)c2F)C[C@@H]1N1CCC[C@@H](Nc2cc(Cl)cc(C(F)(F)F)c2)C1=O` [VECABRUTINIB]: in experiment [14], the concentration for half-maximal inhibition (IC50) was found to be 2.9 nM.
Take `C[C@@H](Oc1cc(-c2cnn(C3CCNCC3)c2)cnc1N)c1c(Cl)ccc(F)c1Cl` [CRIZOTINIB]: the GI50 in experiment [9] worked out at 2880 nM; in [10], 500 nM.
With `CN(C)C/C=C/C(=O)Nc1cc2c(Nc3ccc(F)c(Cl)c3)ncnc2cc1O[C@H]1CCOC1` [AFATINIB], the figures for the IC50 in the experiment on NCI-H1975 and with LoVo were 22 nM and 15 nM, respectively.
